The results in this text go back to patent US8258140B2 (Astrazeneca AB, priority 2009, dated 2012).

A value given as a limit tells only on which side of the number the result lay.

This test deals with T1, Androgen Receptor (AR) in the LNCaP prostate carcinoma cell line (Homo sapiens, UniProt P10275, T878A).
T1 construct: cell based immuno-fluorescence assay using the LNCaP prostate epithelial cell line; host or cells: LNCaP clone FGC
T1 sequence (P10275 1-920 T878A): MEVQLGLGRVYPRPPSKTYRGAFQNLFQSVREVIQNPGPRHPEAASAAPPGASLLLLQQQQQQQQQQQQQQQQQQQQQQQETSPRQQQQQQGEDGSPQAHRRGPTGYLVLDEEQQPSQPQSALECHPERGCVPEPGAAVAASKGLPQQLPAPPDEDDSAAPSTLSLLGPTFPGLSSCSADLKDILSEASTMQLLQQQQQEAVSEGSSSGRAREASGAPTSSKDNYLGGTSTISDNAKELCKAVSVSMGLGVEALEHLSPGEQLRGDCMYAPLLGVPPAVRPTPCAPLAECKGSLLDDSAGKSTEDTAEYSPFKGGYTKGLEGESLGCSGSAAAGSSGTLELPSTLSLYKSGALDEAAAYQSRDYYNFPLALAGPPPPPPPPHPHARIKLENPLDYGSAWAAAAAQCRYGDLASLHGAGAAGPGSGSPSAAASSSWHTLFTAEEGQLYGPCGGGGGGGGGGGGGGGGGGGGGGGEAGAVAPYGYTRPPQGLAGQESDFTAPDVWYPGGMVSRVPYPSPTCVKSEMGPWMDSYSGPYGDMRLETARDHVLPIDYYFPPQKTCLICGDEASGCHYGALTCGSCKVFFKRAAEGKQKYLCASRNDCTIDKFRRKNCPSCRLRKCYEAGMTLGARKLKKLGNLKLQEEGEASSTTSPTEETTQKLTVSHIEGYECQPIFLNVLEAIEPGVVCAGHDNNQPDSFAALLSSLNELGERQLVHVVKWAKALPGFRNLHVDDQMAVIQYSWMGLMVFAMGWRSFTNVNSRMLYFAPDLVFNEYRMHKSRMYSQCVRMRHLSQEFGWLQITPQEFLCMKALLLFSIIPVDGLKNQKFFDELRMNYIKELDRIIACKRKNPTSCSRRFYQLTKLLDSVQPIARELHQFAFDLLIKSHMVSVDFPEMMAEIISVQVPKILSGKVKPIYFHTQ
Nature of the test: LNCaP Androgen Receptor Down-Regulation Cell Assay (immunofluorescence end point). It counts as cell-based. The following applies: LNCaP cells, compound incubation 20-22 hours, concentration giving 50% reduction of the AR signal. The protocol:
The ability of compounds to reduce Androgen Receptor (AR) numbers was assessed in a cell based immuno-fluorescence assay using the LNCaP prostate epithelial cell line.
This immunofluorescence end point assay measures the ability of a test compound to down-regulate and reduce measured levels of the AR in the LNCaP prostate carcinoma cell line (LNCaP clone FGC (CRL-1740) obtained from the American Type Culture Collection (ATCC)).
LNCaP cells were cultured in Growth Medium (phenol red free Roswell Park Memorial Institute (RPMI) 1640 (Invitrogen Code no. 11835-063) containing 2 mM L-Glutamine (Invitrogen Code no. 25030-024) and 1% (v/v) Penicillin/Streptomycin (10000 units/ml Penicillin and 10000 μg/ml of Streptomycin utilising penicillin G (sodium salt) and streptomycin sulphate: prepared in normal saline, Invitrogen Code no. 15140122) and 10% (v/v) foetal bovine serum (FBS)) in a 5% CO2 air incubator at 37° C. Cells for assay were harvested from T175 stock flasks by washing once in PBS (phosphate buffered saline, pH 7.4) (Invitrogen Code no. 14190-094) and harvested using 5 mls of 1× Trypsin/ethylaminediaminetetraacetic acid (EDTA) (10× Trypsin-EDTA, 5.0 g/L Trypsin, 2.0 g/L of EDTA.4Na and 8.5 g/L of NaCl, without Phenol Red, Invitrogen Code no. 15400-054) diluted in PBS solution. A 5 ml volume of Growth Medium was added to each flask (as above except that 5% (v/v) charcoal stripped FBS (HyClone Code no. SH30068.03) was included instead of 10% (v/v) FBS). Cells were syringed at least twice using a sterile 18 G×1.5″ (1.2×40 mm) broad gauge needle and cell density was measured using a haemocytometer. Cells were further diluted in Growth Medium plus 5% (v/v) charcoal stripped FBS and seeded at a density of 6.5×10^3 cells per well (in 90 ul) into transparent, black, tissue culture treated 96 well plates (Packard, No. 6005182).
Test data reported herein was generated using two different compounds preparation and dosing methods. In method (1) a 10 mM compound stock solution in 100% (v/v) DMSO was serially diluted in 4-fold steps in 100% (v/v) DMSO using a Thermo Scientific Matrix SerialMate. The diluted compounds were then further diluted 1 in 30 in assay media using a Thermo Scientific Matrix PlateMate and a 10 μl aliquot of this dilution was dosed to cells manually using a multi-channel pipette. In method (2) starting with a 10 mM compound stock solution, the Labcyte Echo 550 was used to generate a compound concentration response set diluted in 30 μl of assay media. The Echo 550 is a liquid handler that uses acoustic technology to perform direct microplate-to-microplate transfers of DMSO compound solutions. The system can be programmed to transfer volumes as low as 2.5 nL in multiple increments between microplates and in so doing generates a serial dilution of compound which is then back-filled to normalise the DMSO concentration across the dilution range. A 10 μl volume of diluted compound is then dosed to cells using a Thermo Scientific Matrix PlateMate.
Plates were incubated overnight at 37° C., 5% CO2. Wells were then dosed with compound prepared by one of the 2 methods above and further incubated for 20-22 hours at 37° C., 5% CO2. Plates were fixed by the addition of 20 μl of 10% (v/v) formaldehyde solution (in PBS) to each well (final formaldehyde conc.=1.67% (v/v)) and left at room temperature for 10 mins. This fixative solution was removed and cells were washed with 250 μl of PBS/0.05% (v/v) Tween 20 (PBST) using an automated plate washer. This process was then repeated twice more.
Immunostaining was performed at room temperature. Cells were permeabilised by the addition of 35 μl of PBS containing 0.5% Tween 20 and incubated for 1 hour at room temperature. Permeabilisation solution was removed and cells were washed with 250 μl of PBST using an automated plate washer. This process was then repeated twice more. […]
The compound “6-(4-{4-[2-(1H-imidazol-1-yl)ethoxy]phenyl}piperazin-1-yl)-3-(trifluoromethyl)-7,8-dihydro[1,2,4]triazolo[4,3-b]pyridazine [Example 38]” had an IC50 of 7.8 µM. The same measure for “6-(4-{4-[2-(1H-imidazol-1-yl)ethoxy]phenyl}piperidin-1-yl)-3-(trifluoromethyl)-7,8-dihydro[1,2,4]triazolo[4,3-b]pyridazine [Example 41]”: 2.9 µM; for `CC(=O)N1CCN([C@H](C)COc2ccc(C3CCN(C4=Nn5c(nnc5C(F)(F)F)CC4)CC3)cc2)CC1` (single isomer, unassigned) [Example 53]: 0.18 µM.

For the compound `CC(=O)N1CCN([C@@H](C)COc2ccc(C3CCN(C4=Nn5c(nnc5C(F)(F)F)CC4)CC3)cc2)CC1` (single isomer, unassigned) [Example 54], the IC50 came out at 0.14 µM. For `C[C@@H](COc1ccc(C2CCN(C3=Nn4c(nnc4C(F)(F)F)CC3)CC2)cc1)N1CCN(C)C(=O)C1` (single isomer, unassigned) [Example 55], half-maximal inhibition (IC50) required 0.18 µM. The result for `C[C@H](COc1ccc(C2CCN(C3=Nn4c(nnc4C(F)(F)F)CC3)CC2)cc1)N1CCN(C)C(=O)C1` (single isomer, unassigned) [Example 56] reads 0.38 µM.

`Fc1ccc(CN2CCN(C3=Nn4c(nnc4C(F)(F)F)CC3)CC2)cc1` [Example 1, 6-[4-(4-fluorobenzyl)piperazin-1-yl]-3-(trifluoromethyl)-7,8-dihydro[1,2,4]triazolo[4,3-b]pyridazine] yielded an IC50 of 6 µM. The same measure for `FC(F)(F)c1nnc2n1N=C(N1CC=C(c3c[nH]c4ccccc34)CC1)CC2` [Example 2, 6-[4-(1H-indol-3-yl)-5,6-dihydropyridin-1(2H)-yl]-3-(trifluoromethyl)-7,8-dihydro-[1,2,4]triazolo[4,3-b]pyridazine]: 3.2 µM; for `FC(F)(F)c1nnc2n1N=C(N1CCC(c3c[nH]c4ccccc34)CC1)CC2` [Example 3, 6-[4-(1H-indol-3-yl)piperidin-1-yl]-3-(trifluoromethyl)-7,8-dihydro[1,2,4]triazolo[4,3-b]pyridazine]: 1.2 µM. As to `Fc1cccc(CN2CCN(C3=Nn4c(nnc4C(F)(F)F)CC3)CC2)c1` [Example 6, 6-[4-(3-fluorobenzyl)piperazin-1-yl]-3-(trifluoromethyl)-7,8-dihydro[1,2,4]triazolo[4,3-b]pyridazine], the concentration for half-maximal inhibition (IC50) was found to be 4 µM. Consider `FC(F)(F)c1nnc2n1N=C(N1CCN(Cc3cccc(Cl)c3)CC1)CC2` [Example 7, 6-[4-(3-chlorobenzyl)piperazin-1-yl]-3-(trifluoromethyl)-7,8-dihydro[1,2,4]triazolo[4,3-b]pyridazine], for which the midpoint of inhibition, the IC50, lay at 2.9 µM. The same measure for `FC(F)(F)c1cccc(CN2CCN(C3=Nn4c(nnc4C(F)(F)F)CC3)CC2)c1` [Example 8, 3-(trifluoromethyl)-6-{4-[3-(trifluoromethyl)benzyl]piperazin-1-yl}-7,8-dihydro[1,2,4]triazolo[4,3-b]pyridazine]: 2.7 µM; for `Fc1cccc(CN2CCN(C3=Nn4c(nnc4C(F)(F)F)CC3)CC2)c1F` [Example 9, 6-[4-(2,3-difluorobenzyl)piperazin-1-yl]-3-(trifluoromethyl)-7,8-dihydro[1,2,4]triazolo[4,3-b]pyridazine]: 4.1 µM; for `Fc1ccc(C(F)F)c(CN2CCN(C3=Nn4c(nnc4C(F)(F)F)CC3)CC2)c1` [Example 10, 6-[4-[2-(difluoromethyl)-5-fluorobenzyl]piperazin-1-yl]-3-(trifluoromethyl)-7,8-dihydro[1,2,4]triazolo[4,3-b]pyridazine]: 1 µM. The result for `FC(F)(F)c1nnc2n1N=C(N1CCN(Cc3c[nH]c4ccccc34)CC1)CC2` [Example 11, 6-[4-(1H-indol-3-ylmethyl)piperazin-1-yl]-3-(trifluoromethyl)-7,8-dihydro[1,2,4]triazolo[4,3-b]pyridazine] reads 8.6 µM. `Fc1ccc2[nH]cc(CN3CCN(C4=Nn5c(nnc5C(F)(F)F)CC4)CC3)c2c1` [Example 12, 6-{4-[(5-fluoro-1H-indol-3-yl)methyl]piperazin-1-yl}-3-(trifluoromethyl)-7,8-dihydro[1,2,4]triazolo[4,3-b]pyridazine] showed a half-inhibitory concentration (IC50) of 3.4 µM. The result for `N#Cc1ccc2[nH]cc(CN3CCN(C4=Nn5c(nnc5C(F)(F)F)CC4)CC3)c2c1` [Example 13, 3-({4-[3-(trifluoromethyl)-7,8-dihydro[1,2,4]triazolo[4,3-b]pyridazin-6-yl]piperazin-1-yl}methyl)-1H-indole-5-carbonitrile] reads above 11 µM; that for `OC1(c2ccc(F)cc2)CCN(C2=Nn3c(nnc3C(F)(F)F)CC2)CC1` [Example 14, 4-(4-fluorophenyl)-1-[3-(trifluoromethyl)-7,8-dihydro[1,2,4]triazolo[4,3-b]pyridazin-6-yl]piperidin-4-ol], above 15 µM; that for `Cn1nccc1CCOc1ccc(C2CCN(C3=Nn4c(nnc4C(F)(F)F)CC3)CC2)cc1` [Example 15, 6-[4-[4-[2-(1-methyl-1H-pyrazol-5-yl)ethoxy]phenyl]piperidin-1-yl]-3-(trifluoromethyl)-7,8-dihydro[1,2,4]triazolo[4,3-b]pyridazine], 0.94 µM.

For `Cn1nccc1CCOc1ccc(N2CCN(C3=Nn4c(nnc4C(F)(F)F)CC3)CC2)cc1` [Example 16, 6-[4-[4-[2-(1-methyl-1H-pyrazol-5-yl)ethoxy]phenyl]piperazin-1-yl]-3-(trifluoromethyl)-7,8-dihydro[1,2,4]triazolo[4,3-b]pyridazine], the half-maximal inhibitory concentration (IC50) amounted to 3.2 µM. The same measure for `FC(F)(F)c1nnc2n1N=C(N1CC=C(c3c[nH]c4ncccc34)CC1)CC2` [Example 17, 6-[4-(1H-pyrrolo[2,3-b]pyridin-3-yl)-3,6-dihydropyridin-1(2H)-yl]-3-(trifluoromethyl)-7,8-dihydro[1,2,4]triazolo[4,3-b]pyridazine]: 4.4 µM.
